Assay results published in PubChem BioAssay (NCI).
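Test compounds were applied to cells in 96-well plates for 48 hours at 5 doses. GI50 is the concentration that inhibits growth by half. The concentration for full growth arrest is given as TGI.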

How the values were obtained:
Assay in all cases: growth of human tumour cells (NCI), 48 h
DLD-1 colon = test system: DLD-1 colon
LXFL 529 NSCLC = test system: LXFL 529 NSCLC
M19-MEL melanoma = test system: M19-MEL melanoma
RXF-631 renal = test system: RXF-631 renal
BT-549 breast = test system: BT-549 breast
T-47D breast = test system: T-47D breast
MDA-N = test system: MDA-N
HOP-18 NSCLC = test system: HOP-18 NSCLC
SNB-78 CNS = test system: SNB-78 CNS

## COc1cc2c(c(OC)c1OC)-c1ccc(SC)c(=O)cc1[C@@H](NC(=O)c1ccc(Cl)cc1)CC2
DLD-1 colon
  TGI: > 100 µM
LXFL 529 NSCLC
  TGI: 0.169 µM
M19-MEL melanoma
  TGI: > 100 µM
RXF-631 renal
  TGI: > 100 µM

## O=c1[nH]c2ccccc2n1-c1n[nH]c2ccccc12
BT-549 breast
  GI50: 30.5 µM
  TGI: > 100 µM
T-47D breast
  GI50: 29.5 µM
  TGI: 98.2 µM

## CC(C)C(=O)Oc1cc2c(=O)oc3c(OC(=O)C(C)C)c(OC(=O)C(C)C)cc4c(=O)oc(c1OC(=O)C(C)C)c2c34
BT-549 breast
  TGI: > 100 µM
MDA-N
  TGI: > 100 µM

## CC1CC[C@]2(C(=O)O)CCC3(C)C(=CCC4[C@@]5(C)CC[C@H](OS(=O)(=O)c6ccccc6)C(C)(C)C5CC[C@]43C)[C@@H]2[C@H]1C (some centres undefined)
DLD-1 colon
  TGI: > 100 µM
HOP-18 NSCLC
  TGI: > 100 µM
LXFL 529 NSCLC
  TGI: > 100 µM
M19-MEL melanoma
  TGI: > 100 µM
RXF-631 renal
  TGI: > 100 µM
SNB-78 CNS
  TGI: > 100 µM

## O=C(Cc1ccccc1)NN1C(=O)/C(=C\c2ccc(O)cc2)SC1=Nc1ccccc1
BT-549 breast
  TGI: > 100 µM
MDA-N
  TGI: > 100 µM
T-47D breast
  TGI: > 100 µM

## O=C(Nc1ccccc1C(=O)N/N=C(\c1ccccc1)c1ccccn1)c1ccc(F)cc1
BT-549 breast
  GI50: 0.436 µM
  TGI: > 26.7 µM
T-47D breast
  GI50: 0.394 µM
  TGI: > 100 µM

## CC(=O)Oc1ccc(/C=N/NC(N)=S)nc1
BT-549 breast
  GI50: 3.4 µM
  TGI: 68.9 µM
T-47D breast
  GI50: 5.39 µM
  TGI: > 100 µM

## CCOC(=O)[C@H]1Nc2ccccc2C2c3ccccc3CC21 (some centres undefined)
DLD-1 colon
  TGI: > 100 µM
LXFL 529 NSCLC
  TGI: > 100 µM
M19-MEL melanoma
  TGI: > 100 µM
RXF-631 renal
  TGI: > 100 µM
SNB-78 CNS
  TGI: > 100 µM

## Oc1ccc(Cl)cc1Cc1cc(Cl)ccc1O
BT-549 breast
  GI50: 2.6 µM
  TGI: 8.76 µM
T-47D breast
  GI50: 2.18 µM
  TGI: 7.3 µM

## Cc1cc(Cl)ccc1NS(=O)(=O)c1ccc(-c2cnc(C3CC3)o2)cc1
BT-549 breast
  GI50: 1.32 µM
  TGI: 15.5 µM
T-47D breast
  GI50: 0.369 µM
  TGI: 42.4 µM

## CC1=C(C(=O)Nc2ccc(Cl)c(Cl)c2)C(c2ccccc2O)NC(=O)N1 (centres undefined)
BT-549 breast
  GI50: 15.3 µM
  TGI: > 50 µM
T-47D breast
  GI50: > 50 µM
  TGI: > 50 µM

## Cc1nc(-n2nc(-c3ccccc3)cc2-c2ccccc2)sc1C(/C=C/c1ccc([N+](=O)[O-])cc1)=N/NC(=O)c1ccncc1
DLD-1 colon
  TGI: 33.2 µM
LXFL 529 NSCLC
  TGI: 43.2 µM
M19-MEL melanoma
  TGI: 92.6 µM
SNB-78 CNS
  TGI: 61 µM

## N#CC1C=Cc2ccccc2N1C(=O)Oc1ccccc1 (centres undefined)
BT-549 breast
  TGI: > 100 µM
MDA-N
  TGI: > 100 µM
T-47D breast
  TGI: > 100 µM

## COC(=O)/C(=N/NC(N)=O)C(C(=O)OC)C(=O)C(=O)Nc1ccc(Cl)cc1 (centres undefined)
DLD-1 colon
  TGI: > 100 µM
HOP-18 NSCLC
  TGI: > 100 µM
LXFL 529 NSCLC
  TGI: > 100 µM
M19-MEL melanoma
  TGI: > 100 µM

## COc1cc(/C=C(\C#N)C(N)=C(C#N)C#N)cc(O)c1O
BT-549 breast
  TGI: > 100 µM
DLD-1 colon
  TGI: > 100 µM
LXFL 529 NSCLC
  TGI: > 100 µM
M19-MEL melanoma
  TGI: > 100 µM
MDA-N
  TGI: > 100 µM
SNB-78 CNS
  TGI: > 100 µM
T-47D breast
  TGI: > 100 µM

## COc1cnc2cc(C(=O)O)c3ccccc3c2c1
MDA-N
  TGI: > 100 µM
T-47D breast
  TGI: > 100 µM

## COc1cccc(/C=C/C(=O)c2cc3c(N)c(C(=O)Nc4cccc5ccccc45)sc3nc2C)c1
BT-549 breast
  GI50: 1.2 µM
  TGI: 3.88 µM
T-47D breast
  GI50: 1.22 µM
  TGI: 4.45 µM

## COc1ccc(CCN2CCc3c(C)c(C#N)c4nc5ccccc5n4c32)cc1OC
BT-549 breast
  TGI: 84.2 µM
MDA-N
  TGI: 43.1 µM

## CCOC(=O)C1COc2cc(-c3cc(=O)c4ccccc4o3)ccc2O1 (centres undefined)
DLD-1 colon
  TGI: > 100 µM
LXFL 529 NSCLC
  TGI: > 100 µM
M19-MEL melanoma
  TGI: > 100 µM
SNB-78 CNS
  TGI: > 100 µM

## O=c1cc(-c2ccccn2)[nH]c2ccc(Cl)cc12
DLD-1 colon
  TGI: > 100 µM
HOP-18 NSCLC
  TGI: > 100 µM
LXFL 529 NSCLC
  TGI: > 100 µM
M19-MEL melanoma
  TGI: > 100 µM
SNB-78 CNS
  TGI: > 100 µM

## Cc1ccc(C(C)C)cc1NC(=O)Nc1ccc([N+](=O)[O-])cc1
BT-549 breast
  GI50: 2.13 µM
  TGI: 8.21 µM
T-47D breast
  GI50: 1.99 µM
  TGI: 7.36 µM

## O=C(Nc1cccc(NC(=O)c2cc(=O)c3ccccc3o2)n1)c1cc(=O)c2ccccc2o1
DLD-1 colon
  TGI: > 100 µM
LXFL 529 NSCLC
  TGI: > 100 µM
M19-MEL melanoma
  TGI: > 100 µM
RXF-631 renal
  TGI: > 100 µM
SNB-78 CNS
  TGI: > 100 µM

## CN(C=O)/C=C/c1cc(O)ccc1O
DLD-1 colon
  TGI: 39.4 µM
HOP-18 NSCLC
  TGI: 31.4 µM
LXFL 529 NSCLC
  TGI: 33.6 µM
M19-MEL melanoma
  TGI: 44.9 µM
RXF-631 renal
  TGI: > 100 µM
SNB-78 CNS
  TGI: 56.2 µM

## CN1CCc2c1nc(-c1ccc([N+](=O)[O-])cc1)c1c2N(C)CC1
DLD-1 colon
  TGI: > 100 µM
HOP-18 NSCLC
  TGI: > 100 µM
LXFL 529 NSCLC
  TGI: > 100 µM
M19-MEL melanoma
  TGI: > 100 µM
RXF-631 renal
  TGI: > 100 µM
SNB-78 CNS
  TGI: > 100 µM

## CC1COCC(C)N1C1=C(Cl)C(=O)c2ccccc2C1=O (centres undefined)
BT-549 breast
  GI50: 11.7 µM
  TGI: 24 µM

## C=[CH][Sn]([CH]=C)([O]c1cccc2cccnc12)[O]c1cccc2cccnc12
BT-549 breast
  GI50: 2.78 µM
  TGI: 31.5 µM

## CC(=O)C1C(=O)N(C(C)C)C[C@@H]2CCC(=O)C[C@H]12 (some centres undefined)
DLD-1 colon
  TGI: > 100 µM
LXFL 529 NSCLC
  TGI: > 100 µM
M19-MEL melanoma
  TGI: > 100 µM
RXF-631 renal
  TGI: > 100 µM
SNB-78 CNS
  TGI: > 100 µM

## O=c1c2ccccc2oc2ccc(OCCCCCCN3CCCCCC3)cc12
BT-549 breast
  GI50: 1.7 µM
  TGI: 5.3 µM
T-47D breast
  GI50: 2.26 µM
  TGI: 8.52 µM

## S=c1nc(-c2ccnc(-c3nc(=S)[nH][nH]3)c2)[nH][nH]1
DLD-1 colon
  TGI: > 100 µM
HOP-18 NSCLC
  TGI: > 100 µM
LXFL 529 NSCLC
  TGI: > 100 µM
M19-MEL melanoma
  TGI: > 100 µM
SNB-78 CNS
  TGI: > 100 µM

## Cc1cc([N+](=O)[O-])c(C)c(Br)c1C
BT-549 breast
  TGI: > 100 µM
MDA-N
  TGI: > 100 µM
T-47D breast
  TGI: > 100 µM

## O=C(NCCCCCCCNC(=O)OCc1ccc2c(Cl)cc(Cl)c(O)c2n1)OCc1ccc2c(Cl)cc(Cl)c(O)c2n1
BT-549 breast
  GI50: 0.359 µM
  TGI: 1.42 µM
T-47D breast
  GI50: 1.33 µM
  TGI: 3.95 µM

## N[C@@H]1CCCC[C@@H]1N.O=P([O-])([O-])CN(CP(=O)([O-])[O-])CP(=O)([O-])[O-].[Pt+2]
DLD-1 colon
  GI50: > 100 µM
  TGI: > 100 µM
HOP-18 NSCLC
  GI50: > 100 µM
  TGI: > 100 µM
LXFL 529 NSCLC
  GI50: > 100 µM
  TGI: > 100 µM
M19-MEL melanoma
  GI50: > 100 µM
  TGI: > 100 µM
SNB-78 CNS
  GI50: > 100 µM
  TGI: > 100 µM

## CCSC(SCC)=C1C(=O)N(c2ccccc2)N=C1C
DLD-1 colon
  TGI: 26.8 µM
HOP-18 NSCLC
  TGI: 29.4 µM
LXFL 529 NSCLC
  TGI: 22.6 µM
M19-MEL melanoma
  TGI: 1.83 µM
SNB-78 CNS
  TGI: 46.3 µM

## Nc1ccc2c(c1)c(N)nn2C(=O)Nc1ccc(Cc2ccccc2)cc1
BT-549 breast
  GI50: 14.6 µM
  TGI: 33.5 µM
T-47D breast
  GI50: 5.8 µM
  TGI: 22.8 µM
